These results are taken from patent publication US11180474B2 (BRISTOL-MYERS SQUIBB COMPANY, priority 2016, dated 2021).

One assay addresses T1, human TLR8 (Homo sapiens, UniProt Q9NR97).
T1 construct: host or cells: HEK-Blue cells
T1 sequence (Q9NR97 27-1041): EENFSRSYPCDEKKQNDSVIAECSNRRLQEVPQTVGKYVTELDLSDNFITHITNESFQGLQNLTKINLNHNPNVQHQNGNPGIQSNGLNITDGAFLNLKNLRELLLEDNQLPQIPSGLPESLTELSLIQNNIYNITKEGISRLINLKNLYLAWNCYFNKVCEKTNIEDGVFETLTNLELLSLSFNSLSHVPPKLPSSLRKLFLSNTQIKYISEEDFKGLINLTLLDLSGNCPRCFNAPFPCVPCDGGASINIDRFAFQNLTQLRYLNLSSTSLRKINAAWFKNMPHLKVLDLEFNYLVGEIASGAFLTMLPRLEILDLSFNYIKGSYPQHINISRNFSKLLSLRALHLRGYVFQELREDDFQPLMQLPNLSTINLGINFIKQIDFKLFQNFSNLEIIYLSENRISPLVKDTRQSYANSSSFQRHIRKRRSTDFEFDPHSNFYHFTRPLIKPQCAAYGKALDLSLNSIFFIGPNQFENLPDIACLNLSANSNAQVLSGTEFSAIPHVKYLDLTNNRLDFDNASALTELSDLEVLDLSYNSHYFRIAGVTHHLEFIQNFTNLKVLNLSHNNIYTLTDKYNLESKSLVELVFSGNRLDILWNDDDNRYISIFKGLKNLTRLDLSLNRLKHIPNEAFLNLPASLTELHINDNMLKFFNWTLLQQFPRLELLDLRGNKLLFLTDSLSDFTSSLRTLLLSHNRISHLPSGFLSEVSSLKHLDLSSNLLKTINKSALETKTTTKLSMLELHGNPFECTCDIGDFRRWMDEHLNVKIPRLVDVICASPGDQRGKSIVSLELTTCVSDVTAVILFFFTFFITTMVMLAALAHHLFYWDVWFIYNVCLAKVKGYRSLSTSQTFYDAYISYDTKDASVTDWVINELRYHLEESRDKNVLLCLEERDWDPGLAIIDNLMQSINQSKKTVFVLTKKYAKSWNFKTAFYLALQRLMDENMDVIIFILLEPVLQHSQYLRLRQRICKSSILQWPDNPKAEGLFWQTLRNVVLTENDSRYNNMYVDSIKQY
In words: TLR8 inhibition reporter assay (HEK-Blue cells, SEAP reporter, R848 stimulation). Conditions: HEK-Blue cells overexpressing human TLR8, R848 15.9 μM. The format is cell-based. The essentials: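 HEK-Blue reporter cells (15,000/well TLR7, 20,000 TLR8) exposed to compound over 0.05 nM–50 μM, agonist-stimulated (R848 for TLR8, gardiquimod for TLR7), 22 h at 37 °C, 5% CO2. SEAP read with HEK-Blue Detection; % inhibition relative to agonist-plus-DMSO and known-inhibitor controls.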

The test system of a further assay is TLR7. In words: In vivo mouse TLR7 PD model (gardiquimod challenge, plasma IL-6). The conditions noted are these: oral. On the procedure:
In Vivo Mouse TLR7 and TLR9 PD Model:
Adult male C57BL/6 mice were used for the experiments. Mice (7 to 10 per group) were randomized into different treatment groups based on body weight. Mice from the respective treatment groups were administered orally with vehicle or test compound. Thirty min after the oral administration of vehicle or test compound, mice were challenged with intraperitoneal injection of gardiquimod for TLR7 PD model and CpG-ODN for TLR9 PD model. Ninety minutes after gardiquimod injection and 120 minutes after CpG-ODN injection, mice were bled under isoflurane anaesthesia and plasma IL-6 level was estimated by using commercially available ELISA kit (BD Biosciences). At the end of experiment, mean cytokine data was plotted and one way ANOVA with Dunnett's test was performed to calculate the significance of test compound treated group vs. vehicle control group. Percent inhibition of cytokine induction was calculated for test compound treated group vs vehicle control group.

pIC50: −log10 of the molar value.

For orientation: pIC50 means −log10 of the IC50, conventionally taken in molar units. Take `COc1ccc(-c2[nH]c3ccc(C4CCN(C(=O)CN5CCC[C@@H](C(=O)N6CCN(C(C)C)CC6)C5)CC4)cc3c2C(C)C)cc1OC` [Example 302, (R)-1-(4-(2-(3,4-dimethoxyphenyl)-3-isopropyl-1H-indol-5-yl)piperidin-1-yl)-2-(3-(4-isopropylpiperazine-1-carbonyl)piperidin-1-yl)ethan-1-one]: on human TLR8, the pIC50 is 7.74.
`COc1ccc(-c2[nH]c3ccc(C4CCN(C(=O)CN5CCC[C@@H](C(=O)N6CCCC6)C5)CC4)cc3c2C(C)C)cc1OC` [Example 303, (R)-1-(4-(2-(3,4-dimethoxyphenyl)-3-isopropyl-1H-indol-5-yl)piperidin-1-yl)-2-(3-(pyrrolidine-1-carbonyl)piperidin-1-yl)ethan-1-one] had a pIC50 against human TLR8 of 7.51.
The compound `COc1ccc(-c2[nH]c3ccc(C4CCN(C(=O)CN5CCC[C@@H](C(=O)N(C)C(C)C)C5)CC4)cc3c2C(C)C)cc1OC` [Example 304, (R)-1-(2-(4-(2-(3,4-dimethoxyphenyl)-3-isopropyl-1H-indol-5-yl)piperidin-1-yl)-2-oxoethyl)-N-isopropyl-N-methylpiperidine-3-carboxamide] had a pIC50 on human TLR8 of 7.21.
In the case of `COc1ccc(-c2[nH]c3ccc(C4CCN(C(=O)CN5CCC[C@@H](C(=O)N6CCC(N(C)C)CC6)C5)CC4)cc3c2C(C)C)cc1OC` [Example 305, (R)-1-(4-(2-(3,4-dimethoxyphenyl)-3-isopropyl-1H-indol-5-yl)piperidin-1-yl)-2-(3-(4-(dimethylamino)piperidine-1-carbonyl)piperidin-1-yl)ethan-1-one], the pIC50 on human TLR8 was 7.59.
`COc1ccc(-c2[nH]c3ccc(C4CCN(C(=O)CN5CCC[C@@H](C(=O)N6CCC(CCO)CC6)C5)CC4)cc3c2C(C)C)cc1OC` [Example 306, (R)-1-(4-(2-(3,4-dimethoxyphenyl)-3-isopropyl-1H-indol-5-yl)piperidin-1-yl)-2-(3-(4-(2-hydroxyethyl)piperidine-1-carbonyl)piperidin-1-yl)ethan-1-one] had a pIC50 at human TLR8 of 7.14.
The compound `COc1ccc(-c2[nH]c3ccc(C4CCN(C(=O)CN5CCC[C@@H](C(=O)N6CCN(CCN7CCCC7)CC6)C5)CC4)cc3c2C(C)C)cc1OC` [Example 307, (R)-1-(4-(2-(3,4-dimethoxyphenyl)-3-isopropyl-1H-indol-5-yl)piperidin-1-yl)-2-(3-(4-(2-(pyrrolidin-1-yl)ethyl)piperazine-1-carbonyl)piperidin-1-yl)ethan-1-one] had a pIC50 at human TLR8 of 7.42.
Same read-out and setting: next, `COc1ccc(-c2[nH]c3ccc(C4CCN(C(=O)CN5CCC[C@@H](C(=O)NCC#N)C5)CC4)cc3c2C(C)C)cc1OC` [Example 308, (R)—N-(cyanomethyl)-1-(2-(4-(2-(3,4-dimethoxyphenyl)-3-isopropyl-1H-indol-5-yl)piperidin-1-yl)-2-oxoethyl)piperidine-3-carboxamide]: 7.39; `COc1ccc(-c2[nH]c3ccc(C4CCN(C(=O)CN5CCC[C@@H](C(=O)NCC(N)=O)C5)CC4)cc3c2C(C)C)cc1OC` [Example 309, (R)—N-(2-amino-2-oxoethyl)-1-(2-(4-(2-(3,4-dimethoxyphenyl)-3-isopropyl-1H-indol-5-yl)piperidin-1-yl)-2-oxoethyl)piperidine-3-carboxamide]: 7.23; `COc1ccc(-c2[nH]c3ccc(C4CCN(C(=O)CN5CCC[C@@H](C(=O)N6CC7CNCC7C6)C5)CC4)cc3c2C(C)C)cc1OC` (stereo partly drawn) [Example 310, 1-(4-(2-(3,4-dimethoxyphenyl)-3-isopropyl-1H-indol-5-yl)piperidin-1-yl)-2-((3R)-3-(octahydropyrrolo[3,4-c]pyrrole-2-carbonyl)piperidin-1-yl) ethan-1-one]: 6.31.
On human TLR8, `COc1ccc(-c2[nH]c3ccc(C4CCN(C(=O)CN5CCC[C@@H](C(=O)N6C(C)CCC6C)C5)CC4)cc3c2C(C)C)cc1OC` (stereo partly drawn) [Example 311, 1-(4-(2-(3,4-dimethoxyphenyl)-3-isopropyl-1H-indol-5-yl)piperidin-1-yl)-2-((3R)-3-(2,5-dimethylpyrrolidine-1-carbonyl)piperidin-1-yl)ethan-1-one] showed a pIC50 of 7.22.
For `COc1ccc(-c2[nH]c3ccc(C4CCN(CC(=O)N(C)C)CC4)cc3c2C(C)C)cc1OC` [Example 312, 2-(4-(2-(3,4-dimethoxyphenyl)-3-isopropyl-11H-indol-5-yl)piperidin-1-yl)-N,N-dimethylacetamide], the pIC50 at human TLR8 was 7.55. In addition, the “% inhibition of IL6” value in the assay on TLR7 (dose 0.001 mg/kg) amounted to 34%; with TLR7 (dose 0.01 mg/kg), 39%; with TLR7 (dose 0.1 mg/kg), 59%; in the assay on TLR7 (dose 1 mg/kg), 82%.
As for `COc1ccc(-c2[nH]c3ccc(C4CCN(C(=O)CO)CC4)cc3c2C(C)C)cc1OC` [Example 313, 1-(4-(2-(3,4-dimethoxyphenyl)-3-isopropyl-1H-indol-5-yl)piperidin-1-yl)-2-hydroxyethanone], on human TLR8, the pIC50 is 6.30.
The same measure, in the same setting: the result for `COc1ccc(-c2[nH]c3ccc(C4CCN(C(=O)COC(C)C)CC4)cc3c2C(C)C)cc1OC` [Example 314, 1-(4-(2-(3,4-dimethoxyphenyl)-3-isopropyl-1H-indol-5-yl)piperidin-1-yl)-2-isopropoxyethan-1-one] reads 6.18.
